Test results published in publication PMC10944509, “Structural and mechanistic insights into activation of the human RNA ligase RTCB by Archease” (Nature Communications, 2024).
Each block holds one compound with its values, some of them ahead of it.

How the values were obtained:
[1] = target: T1, human RTCB-Archease complex (Homo sapiens, UniProt Q8IWT0+Q9Y3I0); test: X-ray crystal structure, […] Å; assay type: binding; conditions: Mn2+ (sites A, B, C); RTCB active site, gamma-phosphate coordinated by Archease-bound Mn2+; non-hydrolyzable GTP analog; 291 K
T1 construct: full-length RTCB from Sf21 insect cells (His6 tag, TEV-cleaved optionally) with Archease isoform 1 from E. coli (N-terminal His6, thrombin site, tag removal optional); 1:1 complex
T1 sequence (Q9Y3I0 1-505): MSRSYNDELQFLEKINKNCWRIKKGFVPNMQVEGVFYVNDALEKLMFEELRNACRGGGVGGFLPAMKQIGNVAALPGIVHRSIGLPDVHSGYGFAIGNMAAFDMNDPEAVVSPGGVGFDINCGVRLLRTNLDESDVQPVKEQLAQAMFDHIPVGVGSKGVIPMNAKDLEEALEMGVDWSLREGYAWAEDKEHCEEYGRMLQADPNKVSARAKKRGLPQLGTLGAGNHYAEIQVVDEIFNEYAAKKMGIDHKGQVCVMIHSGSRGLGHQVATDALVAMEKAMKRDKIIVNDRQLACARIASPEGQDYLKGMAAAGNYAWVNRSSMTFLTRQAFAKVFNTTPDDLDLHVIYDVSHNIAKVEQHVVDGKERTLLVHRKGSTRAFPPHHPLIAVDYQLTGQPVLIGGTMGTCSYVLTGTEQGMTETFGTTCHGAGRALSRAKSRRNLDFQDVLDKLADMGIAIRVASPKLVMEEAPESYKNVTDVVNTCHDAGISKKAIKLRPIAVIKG
T1 sequence (Q8IWT0 1-167): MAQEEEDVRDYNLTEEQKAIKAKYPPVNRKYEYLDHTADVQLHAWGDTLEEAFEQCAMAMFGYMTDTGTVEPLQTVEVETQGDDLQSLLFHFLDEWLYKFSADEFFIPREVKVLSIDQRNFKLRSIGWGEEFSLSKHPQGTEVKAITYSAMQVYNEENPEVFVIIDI

[2] = target: T1, human RTCB-Archease complex; test: X-ray crystal structure, […] Å; assay type: binding; conditions: covalent; phosphoramidate with RTCB H428, formed from GTP in co-crystallization; Mn2+ (sites A, C); 291 K
[3] = target: T1, human RTCB-Archease complex; test: radioactive guanylylation assay, gel autoradiography; assay type: biochemical; conditions: covalent; labelled compound (alpha-32P-GTP 80 nM); RTCB 1 µM, Archease 1 µM, 0.5 mM MnCl2, pH 7.5, 30 °C
human RTCB (human) = human RTCB (human) (UniProt Q9Y3I0)

Compound: Nc1nc2c(ncn2[C@@H]2O[C@H](COP(=O)(O)CP(=O)(O)OP(=O)(O)O)[C@@H](O)[C@H]2O)c(=O)[nH]1 [GMPCPP, guanosine-5’-[(α,β)-methyleno]triphosphate]
X-ray crystal structure, 2.3 Å [1]: RTCB-Archease complex with a well-resolved GMPCPP molecule in the active site of RTCB

Compound: Nc1nc2c(ncn2[C@@H]2O[C@H](COP(=O)(O)O)[C@@H](O)[C@H]2O)c(=O)[nH]1 [GMP]
X-ray crystal structure, 2.2 Å [2]: GTP reacted with the active site histidine H428 to form the guanylylated RTCB-H428-GMP intermediate

Compound: Nc1nc2c(ncn2[C@@H]2O[C@H](COP(=O)(O)OP(=O)(O)OP(=O)(O)O)[C@@H](O)[C@H]2O)c(=O)[nH]1 [GTP]
radioactive guanylylation assay, gel autoradiography [3]: We detected the formation of guanylylated RTCB only in the presence of Archease

apparent rate constant of XBP1 intron circularization by RTCB (250 nM) with 1 uM Archease, GTP and Mn2+; no ligated product without Archease (human RTCB (human)): 0.015 min⁻¹
Compound: human Archease (isoform 1) (from UniProt Q8IWT0 1-167) (natural protein)
